Legend:
Assay type in all cases: cell-based
[1] = molecular target: T1, human TLR7 (Homo sapiens, UniProt Q9NYK1); test: TLR7 inhibition reporter assay (HEK-Blue SEAP reporter, gardiquimod stimulation); settings: HEK-Blue cells overexpressing human TLR7, SEAP reporter, gardiquimod 7.5 μM, 22 hour incubation
T1 construct: host or cells: HEK-Blue cells
T1 sequence (Q9NYK1 27-1049): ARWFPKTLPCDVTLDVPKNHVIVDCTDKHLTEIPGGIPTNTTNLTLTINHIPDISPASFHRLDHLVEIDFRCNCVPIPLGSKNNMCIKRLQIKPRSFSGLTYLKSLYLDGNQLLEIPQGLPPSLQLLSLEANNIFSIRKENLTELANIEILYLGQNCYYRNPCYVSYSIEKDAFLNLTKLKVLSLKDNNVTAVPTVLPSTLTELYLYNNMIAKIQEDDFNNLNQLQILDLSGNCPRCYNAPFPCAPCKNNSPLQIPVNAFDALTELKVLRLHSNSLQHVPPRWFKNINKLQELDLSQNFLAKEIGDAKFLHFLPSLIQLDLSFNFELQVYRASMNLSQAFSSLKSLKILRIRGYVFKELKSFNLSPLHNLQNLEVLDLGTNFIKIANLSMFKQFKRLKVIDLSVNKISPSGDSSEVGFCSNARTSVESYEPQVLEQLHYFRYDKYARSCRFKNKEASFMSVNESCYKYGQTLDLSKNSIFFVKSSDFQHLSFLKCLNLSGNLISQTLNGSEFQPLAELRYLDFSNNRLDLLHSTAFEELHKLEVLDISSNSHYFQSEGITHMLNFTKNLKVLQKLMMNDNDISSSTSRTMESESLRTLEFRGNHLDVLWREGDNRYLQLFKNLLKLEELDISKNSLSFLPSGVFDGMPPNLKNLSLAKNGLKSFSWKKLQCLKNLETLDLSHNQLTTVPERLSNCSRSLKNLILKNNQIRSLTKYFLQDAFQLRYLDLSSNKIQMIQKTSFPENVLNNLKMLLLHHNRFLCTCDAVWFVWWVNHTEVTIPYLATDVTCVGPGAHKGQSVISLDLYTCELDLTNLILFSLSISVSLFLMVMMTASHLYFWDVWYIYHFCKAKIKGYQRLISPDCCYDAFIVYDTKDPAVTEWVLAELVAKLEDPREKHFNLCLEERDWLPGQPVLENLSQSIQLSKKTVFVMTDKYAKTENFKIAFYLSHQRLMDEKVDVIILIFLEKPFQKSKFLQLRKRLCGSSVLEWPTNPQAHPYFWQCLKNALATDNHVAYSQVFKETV
Procedure, shortened: (§1)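 Screening used HEK-Blue cells overexpressing one human TLR (7, 8 or 9) and an IFN-β minimal promoter–NF-κB/AP-1 SEAP construct. Stimulation lasted 22 h at 37 °C with receptor-specific agonist: gardiquimod, R848 or ODN2006 at 7.5 μM, 15.9 μM and 5 nM.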

[2] = molecular target: T2, human TLR8 (Homo sapiens, UniProt Q9NR97); test: TLR8 inhibition reporter assay (HEK-Blue SEAP reporter, R848 stimulation); settings: HEK-Blue cells overexpressing human TLR8, SEAP reporter, R848 15.9 μM, 22 hour incubation
T2 construct: host or cells: HEK-Blue cells
T2 sequence (Q9NR97 27-1041): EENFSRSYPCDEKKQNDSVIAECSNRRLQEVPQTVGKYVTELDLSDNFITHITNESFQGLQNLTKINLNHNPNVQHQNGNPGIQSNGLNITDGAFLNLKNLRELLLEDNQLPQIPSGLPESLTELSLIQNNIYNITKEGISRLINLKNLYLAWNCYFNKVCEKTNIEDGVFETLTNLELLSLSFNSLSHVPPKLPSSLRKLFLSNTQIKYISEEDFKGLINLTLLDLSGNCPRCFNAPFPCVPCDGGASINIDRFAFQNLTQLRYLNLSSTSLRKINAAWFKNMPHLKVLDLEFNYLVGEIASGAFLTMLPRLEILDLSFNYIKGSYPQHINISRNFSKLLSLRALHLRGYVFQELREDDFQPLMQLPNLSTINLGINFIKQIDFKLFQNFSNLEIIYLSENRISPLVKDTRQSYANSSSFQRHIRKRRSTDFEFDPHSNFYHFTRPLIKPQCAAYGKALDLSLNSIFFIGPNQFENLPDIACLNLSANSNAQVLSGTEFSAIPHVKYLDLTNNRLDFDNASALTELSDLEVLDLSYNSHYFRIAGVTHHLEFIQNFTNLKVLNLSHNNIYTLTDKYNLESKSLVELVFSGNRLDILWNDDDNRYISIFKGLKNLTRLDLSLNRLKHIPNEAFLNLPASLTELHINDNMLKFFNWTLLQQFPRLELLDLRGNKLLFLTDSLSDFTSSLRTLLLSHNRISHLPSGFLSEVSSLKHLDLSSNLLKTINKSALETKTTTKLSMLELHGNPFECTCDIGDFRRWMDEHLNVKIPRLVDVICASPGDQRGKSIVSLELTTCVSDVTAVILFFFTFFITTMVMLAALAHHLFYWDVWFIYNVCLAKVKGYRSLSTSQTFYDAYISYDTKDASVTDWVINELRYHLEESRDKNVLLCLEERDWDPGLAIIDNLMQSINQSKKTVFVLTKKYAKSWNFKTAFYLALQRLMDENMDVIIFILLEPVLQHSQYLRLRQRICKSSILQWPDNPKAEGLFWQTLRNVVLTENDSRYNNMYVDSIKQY
Procedure, shortened: as §1

[3] = molecular target: T3, human TLR9 (Homo sapiens, UniProt Q9NR96); test: TLR9 inhibition reporter assay (HEK-Blue SEAP reporter, ODN2006 stimulation); settings: HEK-Blue cells overexpressing human TLR9, SEAP reporter, ODN2006 5 nM, 22 hour incubation
T3 construct: host or cells: HEK-Blue cells
T3 sequence (Q9NR96 26-1032): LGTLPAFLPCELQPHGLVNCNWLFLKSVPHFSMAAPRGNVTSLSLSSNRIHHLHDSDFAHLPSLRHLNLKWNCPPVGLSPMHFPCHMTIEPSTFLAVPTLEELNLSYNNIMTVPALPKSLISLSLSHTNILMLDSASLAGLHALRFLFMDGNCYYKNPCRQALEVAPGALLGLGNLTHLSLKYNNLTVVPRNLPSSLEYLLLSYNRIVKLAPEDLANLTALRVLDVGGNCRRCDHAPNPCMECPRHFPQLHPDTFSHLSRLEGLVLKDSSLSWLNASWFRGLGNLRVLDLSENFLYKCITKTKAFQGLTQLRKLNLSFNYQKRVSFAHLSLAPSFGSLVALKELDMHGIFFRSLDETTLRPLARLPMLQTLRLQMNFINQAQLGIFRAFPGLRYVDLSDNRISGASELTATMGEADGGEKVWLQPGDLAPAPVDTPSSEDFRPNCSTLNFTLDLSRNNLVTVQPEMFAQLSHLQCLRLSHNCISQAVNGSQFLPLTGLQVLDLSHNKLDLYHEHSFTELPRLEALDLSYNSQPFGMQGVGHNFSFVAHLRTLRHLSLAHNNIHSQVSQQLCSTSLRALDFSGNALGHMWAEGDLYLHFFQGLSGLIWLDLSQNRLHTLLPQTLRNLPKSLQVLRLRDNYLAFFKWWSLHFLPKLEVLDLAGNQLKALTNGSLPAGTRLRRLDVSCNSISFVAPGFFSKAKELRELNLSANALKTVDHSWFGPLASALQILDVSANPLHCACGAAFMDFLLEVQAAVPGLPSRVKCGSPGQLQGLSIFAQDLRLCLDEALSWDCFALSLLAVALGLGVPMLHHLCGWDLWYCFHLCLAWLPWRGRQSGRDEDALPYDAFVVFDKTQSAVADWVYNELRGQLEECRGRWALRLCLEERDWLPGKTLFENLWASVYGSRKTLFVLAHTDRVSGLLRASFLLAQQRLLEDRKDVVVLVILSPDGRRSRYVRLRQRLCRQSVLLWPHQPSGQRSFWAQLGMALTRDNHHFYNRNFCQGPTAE
Procedure, shortened: as §1

Structure (SMILES) | IC50 [1] [nM] | IC50 [2] [nM] | IC50 [3] [nM]
Cc1cc(-c2[nH]c3ccc(C4CCN(C(=O)CN(C)C)CC4)cc3c2C(C)C)cn(Cc2ccccc2)c1=O [Example 284, 1-benzyl-5-(5-(1-(dimethylglycyl)piperidin-4-yl)-3-isopropyl-1H-indol-2-yl)-3-methylpyridin-2(1H)-one] | 6.5 | 21.8 | 1660
COc1c(C)c(-c2[nH]c3ccc(C4CCNCC4)cc3c2C(C)C)cn(C)c1=O [Example 29, 5-(3-isopropyl-5-(piperidin-4-yl)-1H-indol-2-yl)-3-methoxy-1,4-dimethylpyridin-2(1H)-one] | 14.1 | 50.9 | 783
Cc1cc(-c2[nH]c3ccc(C4CCN(C5CCCCC5)CC4)cc3c2C(C)C)cn(C)c1=O [Example 87, 5-(5-(1-cyclohexylpiperidin-4-yl)-3-isopropyl-1H-indol-2-yl)-1,3-dimethylpyridin-2(1H)-one] | 3.1 | 5.7 | 2560
Cc1cc(-c2[nH]c3ccc(C4CCN(C5CCOCC5)CC4)cc3c2C(C)C)cn(Cc2ccccc2)c1=O [Example 263, 1-benzyl-5-(3-isopropyl-5-(1-(tetrahydro-2H-pyran-4-yl)piperidin-4-yl)-1H-indol-2-yl)-3-methylpyridin-2(1H)-one] | 10.8 | 24.1 | 1560
COCCn1cc(-c2[nH]c3ccc(C4CCNCC4)cc3c2C(C)C)cc(C)c1=O [Example 39, 5-(3-isopropyl-5-(piperidin-4-yl)-1H-indol-2-yl)-1-(2-methoxyethyl)-3-methylpyridin-2(1H)-one] | 7.9 | 7.9 | 3180
CNC(=O)CN1CCC(c2ccc3[nH]c(-c4cc(C)c(=O)n(CCOC)c4)c(C(C)C)c3c2)CC1 [Example 160, 2-(4-(3-isopropyl-2-(1-(2-methoxyethyl)-5-methyl-6-oxo-1,6-dihydropyridin-3-yl)-1H-indol-5-yl)piperidin-1-yl)-N-methylacetamide] | 8.9 | 14.5 | 14700
CC(C)c1c(-c2ccc(=O)n(C)c2)[nH]c2ccc(C3CCN(C(=O)CN(C)C)CC3)cc12 [Example 301, 5-(5-(1-(dimethylglycyl)piperidin-4-yl)-3-isopropyl-1H-indol-2-yl)-1-methylpyridin-2(1H)-one] | 25.7 | 36.5 | 1830
CNCCN1CCC(c2ccc3[nH]c(-c4cc(C)c(=O)n(C)c4)c(C(C)C)c3c2)CC1 [Example 176, 5-(3-isopropyl-5-(1-(2-(methylamino)ethyl)piperidin-4-yl)-1H-indol-2-yl)-1,3-dimethylpyridin-2(1H)-one] | 1.3 | 1.3 | 177
Cc1cc(=O)n(C)cc1-c1[nH]c2ccc(C3CCNCC3)cc2c1C(C)C [Example 8, 5-(3-isopropyl-5-(piperidin-4-yl)-1H-indol-2-yl)-1,4-dimethylpyridin-2(1H)-one] | 72.7 | 43.5 | 957
Cc1cc(-c2[nH]c3ccc(C4CCN(C(C)C)CC4)cc3c2C(C)C)nn(C)c1=O [Example 192, 6-(3-isopropyl-5-(1-isopropylpiperidin-4-yl)-1H-indol-2-yl)-2,4-dimethylpyridazin-3(2H)-one] | 6.4 | 12 | 2820
Cc1cc(-c2[nH]c3ccc(C4CCNCC4)cc3c2C(C)C)cn(Cc2ccccc2)c1=O [Example 46, 1-benzyl-5-(3-isopropyl-5-(piperidin-4-yl)-1H-indol-2-yl)-3-methylpyridin-2(1H)-one] | 2.9 | 29.9 | 919
Cc1cc(-c2[nH]c3ccc(C4CCN(C(=O)CN(C)C)CC4)cc3c2C(C)C)c(C)n(C)c1=O [Example 279, 5-(5-(1-(dimethylglycyl)piperidin-4-yl)-3-isopropyl-1H-indol-2-yl)-1,3,6-trimethylpyridin-2(1H)-one] | 23.1 | 5.9 | 7060
Cc1cc(-c2[nH]c3ccc(C4CCN(C(=O)C(C)(C)CO)CC4)cc3c2C(C)C)cn(C)c1=O [Example 304, 5-(5-(1-(3-hydroxy-2,2-dimethylpropanoyl)piperidin-4-yl)-3-isopropyl-1H-indol-2-yl)-1,3-dimethylpyridin-2(1H)-one] | 7.8 | 80 | ≥ 50000
CC(C)c1c(-c2cc(CCC(C)(C)C)c(=O)n(C)c2)[nH]c2ccc(C3CCNCC3)cc12 [Example 61, 3-(3,3-dimethylbutyl)-5-(3-isopropyl-5-(piperidin-4-yl)-1H-indol-2-yl)-1-methylpyridin-2(1H)-one] | 2190 | 2280 | 2080
Cc1c(-c2[nH]c3ccc(C4CCN(CC(C)(C)O)CC4)cc3c2C(C)C)cn(C)c(=O)c1Cl [Example 309, 3-chloro-5-(5-(1-(2-hydroxy-2-methylpropyl)piperidin-4-yl)-3-isopropyl-1H-indol-2-yl)-1,4-dimethylpyridin-2(1H)-one] | 13.7 | 5.3 | 8510
